“Also recorded” adds a separate entry of the source. Where two headings read alike, the source gives them in different places. Blank lines part the entries; values can stand above or below the compound they belong to.
Tests used:
NF-κB p65 = experiment: Immunostaining for NF-κB p65 nuclear translocation in C2C12 myoblasts; format: cell-based; conditions: drug 1μg/ml 24 hours, then TNF-α 24 hours
[1] = MTT cell viability assay in C2C12 myoblasts; conditions: mouse
NF-κB [2] = experiment: TNF-α induced NF-κB luciferase reporter assay in C2C12 myoblasts; format: cell-based; conditions: for Luciferase activity (reduced to): 1μg/ml, myoblasts; for NF-κB inhibition in myoblasts: 0.0001-10μM, TNF-α 10ng/ml
in vitro = conditions: mouse
C2C12 myoblasts = experiment: MTT cell viability assay in C2C12 myoblasts; conditions: MTT at respective IC50 concentration; relative to untreated controls
NF-κB [3] = conditions: primary human peripheral blood and mononuclear cells; cited from earlier work
C2C12 myotubes = experiment: MTT cell viability assay in C2C12 myotubes; conditions: for Myotubes % Cell Viability: MTT at respective IC50 concentration, relative to untreated controls
NF-κB [4] = experiment: TNF-α induced NF-κB luciferase reporter assay in C2C12 myotubes; format: cell-based; conditions: 0.0001-10μM, TNF-α 10ng/ml
[5] = mdx mouse; 5mg/kg; cited from earlier work
NF-κB [6] = conditions: read-out: IC50, NF-κB inhibition; macrophage reporter cell line; cited from earlier work
[7] = 10mg/kg; cited from earlier work
NF-κB [8] = conditions: read-out: IC50, LPS-induced NF-κB; macrophage cell line; cited from earlier work
[9] = MTT cell viability assay in C2C12 myotubes; conditions: mouse
[10] = mdx model; 1.2mg/kg; cited from earlier work
[11] = Myoblast, read-out: NF-κB inhibition luciferase activity, Mean ± SD

Compound: C[C@]12C=CC(=O)C=C1CC[C@@H]1[C@@H]2[C@@H](O)C[C@@]2(C)[C@H]1CC[C@]2(O)C(=O)CO [Prednisolone]
NF-κB nuclear translocation (qualitative) (NF-κB p65): appeared to block nuclear translocation; also recorded: reduced the amount of nuclear translocation
viability at 48 h ([1]; C2C12 myoblasts containing an NF-κB luciferase reporter): 78.8%
inhibition at 0.1 µM (NF-κB [2]; [11]): 51.7 ± 13.6%
inhibition at 1 µM (NF-κB [2]; [11]): 79.2 ± 9.22%
inhibition at 10 µM (NF-κB [2]; [11]): 85.4 ± 4.59%
Luciferase activity (reduced to) (NF-κB [2]; long regime: 24 h pretreatment, 24 h TNF-α): 38%
NF-κB inhibition in myocytes, myoblasts and myotubes together (NF-κB [2]): effective at inhibiting the NF-κB pathway
Luciferase activity (reduced to) (NF-κB [2]; short regime: 30min pretreatment, 3hr TNF-α): 49.5%
viability at 48 h (in vitro): 81.6%

Compound: CC1=C(CO)C(=O)O[C@@H]([C@@H](C)[C@H]2CC[C@H]3[C@@H]4C[C@H]5O[C@]56[C@@H](O)C=CC(=O)[C@]6(C)[C@H]4CC[C@]23C)C1 [Withaferin]
Myoblasts % Cell Viability (C2C12 myoblasts): 61.1%
NF-κB inhibition in myocytes, myoblasts and myotubes together (NF-κB [2]): effective at inhibiting NF-κB
Maximal effective dose (NF-κB [3]): 1.0 mg/mL
Myotubes % Cell Viability (C2C12 myotubes): 72.7%

Compound: CC(C)(C)c1ccc(S(=O)(=O)/C=C/C#N)cc1 [Bay 11-7085]
NF-κB inhibition in myotubes (words) (NF-κB [4]; listed as BAY 11-7085): no inhibition
NF-κB inhibition in myotubes (words) (NF-κB [4]; listed as Bay-11 7085): exhibited NF-κB inhibition
NF-κB inhibition in myoblasts (NF-κB [2]): but not myoblasts
Myotubes % Cell Viability (C2C12 myotubes): 87.2%

NF-κB inhibition in myotubes (words) (NF-κB [4]): did not inhibit NF-κB
NF-κB inhibition in myoblasts (NF-κB [2]): did not inhibit NF-κB
NF-κB inhibition in myocytes, myoblasts and myotubes together (NF-κB [2]): mostly ineffective
Compound: O=C(O[C@@H]1Cc2c(O)cc(O)cc2O[C@@H]1c1cc(O)c(O)c(O)c1)c1cc(O)c(O)c(O)c1 [EGCG, Epigallocatechin gallate]
Muscle histology, force contractions and creatine kinase leakage [5]: improve mdx mouse muscle histology, force contractions and creatine kinase leakage
IC50 (NF-κB [6]): 12000 nM

Compound: CC1=C(O)C(=O)C=C2C1=CC=C1[C@@]2(C)CC[C@@]2(C)[C@@H]3C[C@](C)(C(=O)O)CC[C@]3(C)CC[C@]12C [Celastrol]
Paw swelling [7]: reduce paw swelling a similar amount as Prednisolone
NF-κB nuclear translocation (qualitative) (NF-κB p65): appeared to block nuclear translocation; also recorded: reduced the amount of nuclear translocation
viability at 48 h [1]: 83.9%
IC50 (NF-κB [2]; Mus musculus, C2C12, read-out: IC50 in myocytes): ~1 nM
IC50 (NF-κB [8]): 270 nM
Toxicity to myotubes (C2C12 myotubes; 10μg/ml, MTT): 35%
viability at 48 h [9]: 72.1%

NF-κB inhibition in myotubes (words) (NF-κB [4]): did not inhibit NF-κB
NF-κB inhibition in myoblasts (NF-κB [2]): did not inhibit NF-κB
NF-κB inhibition in myocytes, myoblasts and myotubes together (NF-κB [2]): mostly ineffective
Compound: Thymosin β4: small actin-sequestering protein that reduces inflammation and promotes healing in multiple tissues

NF-κB inhibition in myotubes (words) (NF-κB [4]): did not inhibit NF-κB
NF-κB inhibition in myoblasts (NF-κB [2]): did not inhibit NF-κB
NF-κB inhibition in myocytes, myoblasts and myotubes together (NF-κB [2]): mostly ineffective
Compound: Cc1ccc(=O)n(-c2ccccc2)c1 [Pirfenidone]
Cardiac function [10]: improve cardiac function
